Measurements as given in ChEMBL document CHEMBL1201862, “PubChem BioAssay data set” (2004).
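The compound was tested at five concentrations on cells cultured in 96-well plates, with a 48-hour exposure period. GI50: concentration for 50% inhibition of growth.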 Calls of active or inactive are those of the source. No stated cut-off is given here; in the data, active = GI50 up to about 1.1 µM and inactive = higher.

Experiments:
Assay in all cases: inhibition of tumour cell growth, NCI panel, 48 h
UO-31 = tested on: UO-31
EKVX = tested on: EKVX
HOP-62 = tested on: HOP-62
OVCAR-4 = tested on: OVCAR-4
TK-10 = tested on: TK-10
DLD-1 = tested on: DLD-1
SNB-78 = tested on: SNB-78
SF-539 = tested on: SF-539
UACC-62 = tested on: UACC-62
SF-295 = tested on: SF-295
RPMI-8226 = tested on: RPMI-8226
A549 = tested on: A549
XF498 = tested on: XF498
HL-60 = tested on: HL-60
HCC 2998 = tested on: HCC 2998
SK-MEL-5 = tested on: SK-MEL-5

Measured: GI50

O=C(CC1(O)C(=O)Nc2ccc([N+](=O)[O-])cc21)c1ccncc1 (centres undefined)
inactive: UO-31 56.1 µM | EKVX > 100 µM | HOP-62 > 100 µM | OVCAR-4 22.1 µM | TK-10 > 100 µM | DLD-1 37.4 µM | SNB-78 47.2 µM | SF-539 51.3 µM | UACC-62 29.2 µM | SF-295 80.2 µM | RPMI-8226 25.2 µM | A549 > 100 µM | XF498 15.3 µM | HL-60 19.3 µM | HCC 2998 67 µM

CCCCNc1nc(C#N)c(N)s1
inactive: UO-31 > 100 µM | HOP-62 > 100 µM | OVCAR-4 > 100 µM | TK-10 > 100 µM | DLD-1 > 100 µM | SNB-78 > 100 µM | SF-539 > 100 µM | UACC-62 > 100 µM | SF-295 > 100 µM | RPMI-8226 > 100 µM | A549 > 100 µM | XF498 > 100 µM | HL-60 > 100 µM | HCC 2998 > 100 µM

CN(C)CC[N+]1=Nc2cccc3cccc(c23)N1
inactive: UO-31 13.9 µM | EKVX > 84.7 µM | HOP-62 71 µM | OVCAR-4 49.5 µM | TK-10 > 100 µM | DLD-1 > 44.4 µM | SNB-78 > 100 µM | SF-539 72.9 µM | UACC-62 99.8 µM | SF-295 > 100 µM | SK-MEL-5 > 52.8 µM | RPMI-8226 35.1 µM | A549 44.1 µM | XF498 > 86.3 µM | HL-60 24.3 µM | HCC 2998 > 95.7 µM

CN(CCO)c1nc2c(c(=O)[nH]1)CNCC2
inactive: UO-31 > 100 µM | EKVX > 100 µM | HOP-62 > 100 µM | OVCAR-4 > 100 µM | TK-10 > 100 µM | DLD-1 > 100 µM | SNB-78 > 100 µM | SF-539 > 100 µM | UACC-62 > 100 µM | SF-295 > 100 µM | SK-MEL-5 > 100 µM | RPMI-8226 > 100 µM | A549 > 100 µM | XF498 > 100 µM | HL-60 > 100 µM | HCC 2998 > 100 µM

Fc1ccc(C2SCc3nc4ccccc4n32)cc1F (centres undefined)
inactive: UO-31 13.6 µM | EKVX 39.2 µM | HOP-62 35.8 µM | OVCAR-4 18.2 µM | TK-10 26 µM | DLD-1 34.2 µM | SNB-78 32.2 µM | SF-539 34 µM | UACC-62 20.7 µM | SF-295 40.5 µM | SK-MEL-5 16.8 µM | RPMI-8226 13.3 µM | A549 33.6 µM | XF498 25.4 µM | HL-60 7.8 µM | HCC 2998 37.6 µM

CC1CC(=O)C(CC(=O)O)C1C(C(=O)C(=O)Nc1c(C#N)cccc1[N+](=O)[O-])[N+](=O)[O-] (centres undefined)
inactive: UO-31 57.3 µM | EKVX > 100 µM | HOP-62 > 100 µM | OVCAR-4 > 100 µM | TK-10 > 100 µM | DLD-1 > 100 µM | SNB-78 80.4 µM | SF-539 > 100 µM | UACC-62 > 100 µM | SF-295 > 100 µM | SK-MEL-5 > 100 µM | RPMI-8226 > 100 µM | A549 > 100 µM | XF498 > 100 µM | HL-60 > 100 µM | HCC 2998 > 100 µM

COC(=O)C1=C(C(=O)OC)C23C=CC=CC24C(C(=O)OC)=C(C(=O)OC)C4C1C3 (centres undefined)
inactive: UO-31 > 100 µM | EKVX > 100 µM | HOP-62 > 100 µM | OVCAR-4 > 100 µM | TK-10 > 100 µM | DLD-1 > 100 µM | SNB-78 67.1 µM | SF-539 > 100 µM | UACC-62 56.6 µM | SF-295 > 100 µM | SK-MEL-5 > 100 µM | RPMI-8226 51.2 µM | A549 > 100 µM | XF498 > 100 µM | HL-60 41.7 µM | HCC 2998 > 100 µM

COC(=O)C(=O)C(C(=O)C(=O)Nc1ccc(F)cc1)c1nc2ccc([N+](=O)[O-])cc2nc1O (centres undefined)
inactive: UO-31 > 100 µM | EKVX > 100 µM | HOP-62 > 100 µM | OVCAR-4 > 100 µM | TK-10 > 100 µM | DLD-1 > 100 µM | SNB-78 > 100 µM | SF-539 > 100 µM | SF-295 > 100 µM | SK-MEL-5 > 100 µM | RPMI-8226 > 100 µM | A549 > 100 µM | XF498 > 100 µM | HL-60 > 100 µM | HCC 2998 > 100 µM

COc1ccc2c(c1)[n+]([O-])c(-c1ccc(OC)c(OC)c1)c(N)[n+]2[O-]
inactive: UO-31 > 100 µM | EKVX > 100 µM | HOP-62 > 100 µM | OVCAR-4 > 100 µM | TK-10 > 100 µM | DLD-1 78.9 µM | SNB-78 95.3 µM | SF-539 29.4 µM | UACC-62 31.1 µM | SF-295 67.1 µM | SK-MEL-5 32.7 µM | RPMI-8226 > 100 µM | A549 > 100 µM | XF498 > 100 µM | HL-60 53.2 µM | HCC 2998 > 100 µM

COC(=O)C(=O)C(C(=O)C(=O)Nc1ccc(OC)cc1[N+](=O)[O-])c1nc2ccc([N+](=O)[O-])cc2nc1O (centres undefined)
inactive: UO-31 > 100 µM | EKVX > 100 µM | HOP-62 > 100 µM | OVCAR-4 > 100 µM | TK-10 > 100 µM | DLD-1 > 100 µM | SNB-78 > 100 µM | UACC-62 > 100 µM | SF-295 > 100 µM | RPMI-8226 > 100 µM | A549 > 100 µM | XF498 > 100 µM | HL-60 > 100 µM | HCC 2998 > 100 µM

COC(=O)CCC(NC(=S)N/N=C(\C)c1ccco1)C(=O)OC (centres undefined)
inactive: UO-31 > 100 µM | EKVX > 100 µM | HOP-62 > 100 µM | OVCAR-4 > 100 µM | TK-10 > 100 µM | DLD-1 > 100 µM | SNB-78 > 100 µM | SF-539 > 100 µM | UACC-62 > 100 µM | SF-295 > 100 µM | SK-MEL-5 > 100 µM | A549 > 100 µM | XF498 > 100 µM | HL-60 > 100 µM | HCC 2998 > 100 µM

Cc1cc2c(c(C(=O)O)c1C)-c1cccc(F)c1C2=O
inactive: UO-31 27 µM | EKVX > 100 µM | HOP-62 > 100 µM | OVCAR-4 > 100 µM | TK-10 > 100 µM | DLD-1 > 100 µM | SNB-78 > 100 µM | UACC-62 > 100 µM | SF-295 > 100 µM | SK-MEL-5 > 100 µM | RPMI-8226 > 100 µM | A549 > 100 µM | XF498 > 100 µM | HCC 2998 > 100 µM

CCCCN(CCCC)CC(C(=O)Nc1ccc([N+](=O)[O-])cc1[N+](=O)[O-])/C(C)=N\NC(=O)C[N+](C)(C)C (centres undefined)
inactive: UO-31 66.5 µM | EKVX 30.3 µM | HOP-62 > 100 µM | OVCAR-4 > 100 µM | TK-10 > 100 µM | DLD-1 69.3 µM | SNB-78 97.7 µM | SF-539 > 100 µM | UACC-62 > 100 µM | SF-295 > 100 µM | SK-MEL-5 > 100 µM | RPMI-8226 27.7 µM | A549 > 100 µM | XF498 39.3 µM | HL-60 > 100 µM | HCC 2998 > 100 µM
